Experimental findings from ChEMBL document CHEMBL5226297, “Small-Molecule Drug Discovery in Triple Negative Breast Cancer: Current Situation and Future Directions” (J Med Chem, 2021) are described below.

A word on the IC50: it is the concentration that gives 50% inhibition.

Experiment [1] concerns MDA-MB-468. The experiment can be described thus: Anticancer activity against human MDA-MB-468 cells assessed as cell growth inhibition. Type of experiment: functional, cell-based.
In experiment [2] the test system is MDA-MB-231. Briefly: Anticancer activity against human MDA-MB-231 cells assessed as cell growth inhibition. Type of experiment: functional, cell-based.
For another experiment, the system named is HCC1187. The experiment can be described thus: Anticancer activity against human HCC1187 cells assessed as cell growth inhibition. The class given is functional, cell-based.
Experiment [3] has as its system HCC70. The experiment can be described thus: Anticancer activity against human HCC70 cells assessed as cell growth inhibition. The class given is functional, cell-based.
In a further experiment the test system is HCC1143. The experiment can be described thus: Anticancer activity against human HCC1143 cells assessed as cell growth inhibition. The class given is functional, cell-based.
For experiment [4], the system named is HCC1806. Briefly: Anticancer activity against human HCC1806 cells assessed as cell growth inhibition. The class given is functional.
A short description of experiment [5]: Inhibition of ERK (unknown origin). More on the design: species or system Homo sapiens.
Experiment [6] is described as follows: Inhibition of MEK (unknown origin). On the set-up: species or system Homo sapiens.
Experiment [7] deals with Eukaryotic elongation factor 2 kinase (Homo sapiens, UniProt O00418). The experiment can be described thus: Inhibition of eEF2K (unknown origin) by western blot analysis. In general terms: Immunoblotting shows a protein as a band on a membrane.
For experiment [8], the system named is MDA-MB-231. The experiment can be described thus: Anticancer activity against human MDA-MB-231 cells assessed as cell growth inhibition by MTT assay. Type of experiment: functional, cell-based.
The test system of experiment [9] is MDA-MB-468. The experiment can be described thus: Anticancer activity against human MDA-MB-468 cells assessed as cell growth inhibition incubated for 48 hrs by MTT assay. The class given is functional, cell-based. Conditions: MDA-MB-468, 48 h. A general note: Tetrazolium dyes change colour on reduction, which living cells bring about.
Experiment [10] has as its system MDA-MB-231. The experiment can be described thus: cells. The conditions noted are these: Homo sapiens, MDA-MB-231, 48 h.
The test system of experiment [11] is MDA-MB-231. The experiment can be described thus: Anticancer activity against human MDA-MB-231 cells assessed as cell growth inhibition incubated for 72 hrs by MTT assay. Type of experiment: functional, cell-based. The conditions noted are these: MDA-MB-231, 72 h.
For experiment [12], the system named is MDA-MB-436. The experiment can be described thus: Anticancer activity against human MDA-MB-436 cells assessed as cell growth inhibition incubated for 72 hrs by MTT assay. The class given is functional, cell-based. The conditions noted are these: MDA-MB-436, 72 h.
Experiment [13] relates to HCC1806. Briefly: Anticancer activity against human HCC1806 cells assessed as cell growth inhibition incubated for 48 hrs by SRB assay. Type of experiment: functional, cell-based. Conditions: HCC1806, 48 h. (In general: Sulforhodamine B stains cellular protein and so reports cell mass.)
In experiment [14] the test system is MDA-MB-436. Briefly: Anticancer activity against human MDA-MB-436 cells assessed as cell growth inhibition incubated for 24 hrs by CCK8 assay. The class given is functional, cell-based. The conditions noted are these: MDA-MB-436, 24 h.
Experiment [15] concerns BT-549. Briefly: Anticancer activity against human BT-549 cells assessed as cell growth inhibition incubated for 24 hrs by CCK8 assay. The class given is functional, cell-based. Conditions: BT-549, 24 h.
The test system of experiment [16] is MDA-MB-231. The experiment can be described thus: Anticancer activity against human MDA-MB-231 cells assessed as cell growth inhibition incubated for 24 hrs by CCK8 assay. The class given is functional, cell-based. Conditions: MDA-MB-231, 24 h.
The target of experiment [17] is Dual specificity mitogen-activated protein kinase kinase 1 (Homo sapiens, UniProt Q02750). The experiment can be described thus: Inhibition of MEK1 (unknown origin).
The subject of experiment [18] is BT-549. The experiment can be described thus: Anticancer activity against human BT-549 cells assessed as cell growth inhibition by MTT assay. Type of experiment: functional, cell-based.
Experiment [19] has as its system HCC1937. Briefly: Anticancer activity against human HCC1937 cells assessed as cell growth inhibition by MTT assay. Type of experiment: functional, cell-based.
The test system of a further experiment is Hs-578T. Briefly: Anticancer activity against human Hs-578T cells assessed as cell growth inhibition. Type of experiment: functional, cell-based.
The next experiment relates to SUM149PT. The experiment can be described thus: Anticancer activity against human SUM149 cells assessed as cell growth inhibition. The class given is functional, cell-based.
In experiment [20] the test system is HCC1937. Briefly: Anticancer activity against human HCC1937 cells assessed as cell growth inhibition. Type of experiment: functional, cell-based.
The subject of experiment [21] is MDA-MB-231. Briefly: Anticancer activity against human MDA-MB-231 cells assessed as cell growth inhibition incubated up to 72 hrs by Cell-Titre Glo assay. Type of experiment: functional, cell-based. The conditions noted are these: MDA-MB-231, 72 h.
Experiment [22] concerns HCC70. Briefly: Anticancer activity against human HCC70 cells assessed as cell growth inhibition incubated up to 72 hrs by Cell-Titre Glo assay. The class given is functional, cell-based. Conditions: HCC70, 72 h.
In a further experiment the test system is 4T1. The experiment can be described thus: Anticancer activity against mouse 4T1 cells assessed as cell growth inhibition by MTS assay. The class given is functional, cell-based.
A further experiment deals with Interleukin-8 (Homo sapiens, UniProt P10145). Briefly: Inhibition of human IL-8 by ELISA assay.

≈ marks a conversion by molar mass, not a printed value.

Sequence of Dual specificity mitogen-activated protein kinase kinase 1 (Q02750 whole entry): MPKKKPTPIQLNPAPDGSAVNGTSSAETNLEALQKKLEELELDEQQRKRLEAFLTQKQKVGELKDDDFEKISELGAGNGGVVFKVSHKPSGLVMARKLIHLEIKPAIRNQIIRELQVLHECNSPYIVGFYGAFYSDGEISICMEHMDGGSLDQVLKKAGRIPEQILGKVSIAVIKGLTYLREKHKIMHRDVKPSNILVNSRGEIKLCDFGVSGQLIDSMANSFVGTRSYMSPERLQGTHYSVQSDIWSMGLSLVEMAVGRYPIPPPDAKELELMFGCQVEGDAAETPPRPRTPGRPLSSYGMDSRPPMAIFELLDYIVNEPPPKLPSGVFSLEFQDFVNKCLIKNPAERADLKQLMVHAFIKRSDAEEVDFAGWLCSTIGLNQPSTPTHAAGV
Sequence of Eukaryotic elongation factor 2 kinase (O00418 whole entry): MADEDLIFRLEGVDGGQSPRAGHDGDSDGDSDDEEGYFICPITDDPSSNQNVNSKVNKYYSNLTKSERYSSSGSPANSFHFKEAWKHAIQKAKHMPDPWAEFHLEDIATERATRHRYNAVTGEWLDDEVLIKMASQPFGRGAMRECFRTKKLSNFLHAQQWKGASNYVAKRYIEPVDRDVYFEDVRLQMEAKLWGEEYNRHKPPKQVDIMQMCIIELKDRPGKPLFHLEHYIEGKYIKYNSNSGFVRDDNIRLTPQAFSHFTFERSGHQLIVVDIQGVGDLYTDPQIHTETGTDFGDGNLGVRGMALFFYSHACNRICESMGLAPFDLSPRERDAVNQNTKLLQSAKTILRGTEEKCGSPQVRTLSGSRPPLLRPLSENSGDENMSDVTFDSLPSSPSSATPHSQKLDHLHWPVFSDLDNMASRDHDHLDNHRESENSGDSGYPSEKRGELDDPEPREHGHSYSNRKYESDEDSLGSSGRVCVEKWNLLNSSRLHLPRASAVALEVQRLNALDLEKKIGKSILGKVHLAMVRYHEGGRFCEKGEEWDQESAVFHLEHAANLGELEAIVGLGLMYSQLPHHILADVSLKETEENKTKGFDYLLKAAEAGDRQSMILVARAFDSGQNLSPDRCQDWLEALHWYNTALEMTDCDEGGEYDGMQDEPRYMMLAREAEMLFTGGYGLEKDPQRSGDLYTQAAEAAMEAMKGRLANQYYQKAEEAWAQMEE
Sequence of Interleukin-8 (P10145 whole entry): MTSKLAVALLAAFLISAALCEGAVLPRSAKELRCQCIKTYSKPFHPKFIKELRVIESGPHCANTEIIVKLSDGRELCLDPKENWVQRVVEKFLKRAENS

In the case of `N#CCNC(=O)c1ccc(-c2ccnc(Nc3ccc(N4CCOCC4)cc3)n2)cc1` [MOMELOTINIB], the IC50 with MDA-MB-468 [1] amounted to 1 µM; with MDA-MB-231 [2], 1 µM; in the experiment with HCC1187, 1 µM; with HCC70 [3] (Homo sapiens, HCC70), 10 µM; with HCC1143 it was 5 µM.
In the case of `Nc1ccc(-c2ccc3ncc4ccc(=O)n(-c5cccc(C(F)(F)F)c5)c4c3c2)cn1`, the GR50 with HCC70 [3] and with HCC1806 [4] was 0.01 µM in each case.
For the compound `CCOC(=O)C1=C(C)NC(=O)NC1c1cccc([N+](=O)[O-])c1` (stereo not given), the IC50 in experiment [5] and in [6] was 50 µM each time.
Compound `CC1=CC(=O)C(C(C)C)=CC1=O` [THYMOQUINONE] displayed an IC50 in experiment [7] of 8.2 µM.
Regarding `O=C(/C=C/c1ccc(O)c(O)c1)O[C@@H]1C[C@](OC(=O)/C=C/c2ccc(O)c(O)c2)(C(=O)O)C[C@@H](O)[C@H]1O` [1,5-O-TRANS-DICAFFEOYLQUINIC ACID], in the experiment on MDA-MB-231 [8], the IC50 was determined as 81.9 µM.
As to `Cc1c(-c2ccc(O)cc2)n(Cc2ccc(OCCN3CCCCCC3)cc2)c2ccc(O)cc12` [BAZEDOXIFENE], the IC50 in the experiment with MDA-MB-468 [9] stood at 3.14 µM; with MDA-MB-231 [10] it was 7.45 µM.
For `C=C1C(=O)O[C@@H]2/C=C(\C)[C@@H](O)C/C=C(/C)C[C@@H](OC(=O)/C(C)=C/CO)[C@@H]12`, the IC50 was determined as 3.21 µM with MDA-MB-231 [11] and 3.04 µM in the experiment on MDA-MB-436 [12].
Consider `C[C@H]1[C@H](C)CC[C@]2(C(=O)N3CCNCC3)CC[C@]3(C)C(=CC[C@@H]4[C@@]5(C)Cc6cn[nH]c6C(C)(C)[C@@H]5CC[C@]43C)[C@H]12`, for which the IC50 in the experiment on HCC1806 [13] was determined as 7 µM.
For `O=C1OC(=O)C2C3CCC(O3)C12` (stereo not given), the IC50 in the experiment with MDA-MB-436 [14] was 17.7 µg/mL (≈ 105 µM); with BT-549 [15], 12.8 µg/mL (≈ 76.3 µM); in the experiment on MDA-MB-231 [16] it was 21.8 µg/mL (≈ 130 µM).
`O=C(c1ccc(F)c(F)c1Nc1ccc(I)cc1F)N1CC(O)([C@@H]2CCCCN2)C1` [COBIMETINIB]: in experiment [17], inhibition was half-maximal at 4.2 µM (IC50).
Turning to `Cc1cc(C=C2C(=O)C=CC2=O)cc(C)c1O`, the IC50 with BT-549 [18] was determined as 27.5 µM; in the experiment on HCC1937 [19] it was 51.1 µM.
`Cc1nc(Nc2ncc(C(=O)Nc3cc(NC(=O)c4cccc(C(F)(F)F)c4)ccc3C)s2)cc(N2CCN(CCO)CC2)n1`: the IC50 in the experiment with Hs-578T is 0.0091 µM; in the experiment with SUM149PT, 0.23 µM; in the experiment with HCC1937 [20], 0.12 µM; in the experiment on MDA-MB-231 [2], 0.0061 µM.
Take `CC(=O)O[C@@H]1[C@@H](OC(C)=O)[C@@H](O)[C@H](Oc2c(-c3ccc(O)cc3)oc3cc(O)cc(O)c3c2=O)O[C@H]1C`: the IC50 with MDA-MB-231 [21] was 3 µM; in the experiment on HCC70 [22], 15 µM.
On to `CCN(CC)C(=S)SSC(=S)N(CC)CC`, for which the IC50 with 4T1 was found to be 0.25 µM.
For the compound `COc1ccc2cc3[n+](cc2c1OC)CCc1cc2c(cc1-3)OCO2` [BERBERINE], it took 50 µM to reach half-maximal inhibition against Interleukin-8 (IC50).
